Test results: publication PMC9250534, “Synthesis and direct assay of large macrocycle diversities by combinatorial late-stage modification at picomole scale” (Nature Communications, 2022)
One block for each molecule: values may come before it. Numbered stars: 1 amine (or outer) side, 2 acyl side, 3 side chain; on linkers, the order of the positions; unused ones are H or OH. Bridge positions count the residues as written; N and C are the ends. Square brackets hold non-standard residues; d marks the D form. Peptide text beside a SMILES is read from it. * marks the point of attachment. Pyrazinoyl(5-oxo-4H) = O=C(c1c[nH]c(=O)cn1)*; Isoxazole3carbonyl(5-Me) = Cc1cc(C(=O)*)no1; 1,2,3Thiadiazole5CO(4-Me) = Cc1nnsc1C(=O)*; Benzoyl(3-CF3) = O=C(c1cccc(C(F)(F)F)c1)*; Isoorotoyl = O=C(c1c[nH]c(=O)[nH]c1=O)*; Benzoyl(3,5-F2) = O=C(c1cc(F)cc(F)c1)*; Nicotinoyl(6-OMe) = COc1ccc(C(=O)*)cn1; 2Thenoyl(5-Cl) = O=C(c1ccc(Cl)s1)*; Benzoyl(4-Cl) = O=C(c1ccc(Cl)cc1)*; Pyrazinecarbonyl = O=C(c1cnccn1)*; Phenoxyacetyl = O=C(COc1ccccc1)*; X4 = O=C(c1cccc2c1OC(F)(F)O2)*; Cysteamide = C(CS[*:3])N[*:1]; X13 = O=C(c1ccc2[nH]cnc2c1)*; X3 = O=C(Cc1c[nH]c2ccccc12)*; X9 = COc1ccc(CC(=O)*)cc1OC; Isovaleryl = CC(C)CC(=O)*; X1 = O=C(/C=C/c1ccccc1)*; 2Furoyl = O=C(c1ccco1)*; Api = NC1(C(=O)O)CCNCC1; Dap = NC[C@H](N)C(=O)O; Bz = O=C(c1ccccc1)*; Mpa = O=C(O)CCS

Target: MDM2 (Homo sapiens, UniProt Q00987)
Sequence (Q00987 whole entry): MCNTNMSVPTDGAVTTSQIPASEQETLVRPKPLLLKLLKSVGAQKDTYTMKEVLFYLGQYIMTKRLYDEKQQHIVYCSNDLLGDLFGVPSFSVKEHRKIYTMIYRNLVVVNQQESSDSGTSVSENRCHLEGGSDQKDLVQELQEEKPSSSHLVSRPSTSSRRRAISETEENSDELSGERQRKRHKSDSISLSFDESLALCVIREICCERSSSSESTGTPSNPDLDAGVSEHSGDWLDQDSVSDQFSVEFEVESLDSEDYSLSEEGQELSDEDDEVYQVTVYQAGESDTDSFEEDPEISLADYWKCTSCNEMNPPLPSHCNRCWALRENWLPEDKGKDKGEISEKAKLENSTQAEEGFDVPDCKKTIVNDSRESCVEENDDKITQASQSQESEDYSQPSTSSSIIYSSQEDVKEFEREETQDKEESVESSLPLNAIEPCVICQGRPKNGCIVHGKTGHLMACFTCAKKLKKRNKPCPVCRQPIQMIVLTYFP
Test: MDM2 binding screen: displacement of fluorescent p53 peptide probe FP53 (fluorescence polarization)
Details: for fraction fluorescent probe displaced, Screen: initial screen; for fraction fluorescent probe displaced, Screen / fraction fluorescent probe displaced, Replicate: crude macrocycle reactions; for fraction fluorescent probe displaced: 10 µM macrocycle concentration, crude acylated macrocycle (scaffold Mpa-AA1-AA2-AA3 x carboxylic acid), p53-based fluorescent peptide, human MDM2
Procedure, shortened: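 Macrocycle reaction products at a final 10 µM were tested for displacement of a p53-based fluorescent peptide from human MDM2. Fluorescence anisotropy (ex 485/em 535 nm) was read once per macrocycle at 25 °C.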

Compound: O=C1CCSSCCNC(=O)[C@@H]2CCCN2C(=O)C2(CCN(C(=O)c3ccc(Cl)s3)CC2)NC(=O)[C@H](Cc2c[nH]c3ccccc23)N1 [X W D6 B1 Acid 14] ([Mpa]W[Api](2Thenoyl(5-Cl))P-Cysteamide; disulfide 1-C)
- fraction fluorescent probe displaced, Screen (Acid 14): 0.14
- fraction fluorescent probe displaced, Replicate (Acid 14): 0.17

Compound: O=C1CCSSCCNC(=O)[C@@H]2CCCN2C(=O)C2(CCN(C(=O)c3ccc(Cl)cc3)CC2)NC(=O)[C@H](Cc2c[nH]c3ccccc23)N1 [X W D6 B1 Acid 25] ([Mpa]W[Api](Benzoyl(4-Cl))P-Cysteamide; disulfide 1-C)
- fraction fluorescent probe displaced, Screen (Acid 25): 0.28
- fraction fluorescent probe displaced, Replicate (Acid 25): 0.25

Compound: O=C1CCSSCCNC(=O)[C@@H]2CCCN2C(=O)C2(CCN(C(=O)/C=C/c3ccccc3)CC2)NC(=O)[C@H](Cc2c[nH]c3ccccc23)N1 [X W D6 B1 Acid 91] ([Mpa]W[Api](X1)P-Cysteamide; disulfide 1-C)
- fraction fluorescent probe displaced, Screen (Acid 91): 0.14
- fraction fluorescent probe displaced, Replicate (Acid 91): 0.0168

Compound: O=C1CCSSCCNC(=O)C2CCCN(C2)C(=O)C2(CCN(C(=O)c3ccc(Cl)s3)CC2)NC(=O)C(Cc2c[nH]c3ccccc23)N1 (centres unmarked) [X W D6 B4 Acid 14]
- fraction fluorescent probe displaced, Screen (Acid 14): 0.11
- fraction fluorescent probe displaced, Replicate (Acid 14): 0.38

Compound: O=C1CCSSCCNC(=O)C2CCCN(C2)C(=O)C2(CCN(C(=O)c3ccc(Cl)cc3)CC2)NC(=O)C(Cc2c[nH]c3ccccc23)N1 (centres unmarked) [X W D6 B4 Acid 25]
- fraction fluorescent probe displaced, Screen (Acid 25): 0.28
- fraction fluorescent probe displaced, Replicate (Acid 25): 0.20

Compound: O=C1CCSSCCNC(=O)[C@H]2CCCN(C2)C(=O)C2(CCN(C(=O)/C=C/c3ccccc3)CC2)NC(=O)[C@H](Cc2c[nH]c3ccccc23)N1 [X W D6 B4 Acid 91]
- fraction fluorescent probe displaced, Screen (Acid 91): 0.11
- fraction fluorescent probe displaced, Replicate (Acid 91): 0.09

Compound: O=C1CCSSCCNC(=O)c2cccc(c2)CNC(=O)C2(CCN(C(=O)c3ccc(Cl)cc3)CC2)NC(=O)C(Cc2c[nH]c3ccccc23)N1 (centres unmarked) [X W D6 B5 Acid 25]
- fraction fluorescent probe displaced, Screen (Acid 25): 0.15
- fraction fluorescent probe displaced, Replicate (Acid 25): 0.12

Compound: O=C1CCNC(=O)C2CN(C(=O)c3ccc(Cl)s3)CCN2C(=O)C(Cc2c[nH]c3ccccc23)NC(=O)CCSSCCN1 (centres unmarked) [X W D7 B2 Acid 14]
- fraction fluorescent probe displaced, Screen (Acid 14): 0.26
- fraction fluorescent probe displaced, Replicate (Acid 14): 0.10

Compound: O=C1CCSSCCNC(=O)C2CCCN(C2)C(=O)C2CN(C(=O)c3ccc(Cl)cc3)CCN2C(=O)C(Cc2c[nH]c3ccccc23)N1 (centres unmarked) [X W D7 B4 Acid 25]
- fraction fluorescent probe displaced, Screen (Acid 25): 0.15
- fraction fluorescent probe displaced, Replicate (Acid 25): 0.07

Compound: O=C1CCSSCCNC(=O)c2cccc(c2)CNC(=O)C2CN(C(=O)c3ccc(Cl)cc3)CCN2C(=O)[C@H](Cc2c[nH]c3ccccc23)N1 (some centres unmarked) [X W D7 B5 Acid 25]
- fraction fluorescent probe displaced, Screen (Acid 25): 0.12
- fraction fluorescent probe displaced, Replicate (Acid 25): 0.10

Compound: O=C(NC[C@@H]1NC(=O)[C@@H]2CCCN2C(=O)CCSSCCNC(=O)[C@H](Cc2ccccc2)NC1=O)c1ccccc1 [X-B1-D3-F + A1] ([Mpa]P[Dap](Bz)F-Cysteamide; disulfide 1-C)
- fraction fluorescent probe displaced: -0.005048

Compound: O=C(NC[C@@H]1NC(=O)[C@@H]2CCCN2C(=O)CCSSCCNC(=O)[C@H](Cc2ccccc2)NC1=O)c1cnccn1 [X-B1-D3-F + A2] ([Mpa]P[Dap](Pyrazinecarbonyl)F-Cysteamide; disulfide 1-C)
- fraction fluorescent probe displaced: 0.08617

Compound: O=C(NC[C@@H]1NC(=O)[C@@H]2CCCN2C(=O)CCSSCCNC(=O)[C@H](Cc2ccccc2)NC1=O)c1ccc2[nH]cnc2c1 [X-B1-D3-F + A6] ([Mpa]P[Dap](X13)F-Cysteamide; disulfide 1-C)
- fraction fluorescent probe displaced: -0.003922

Compound: CC(=O)NC[C@@H]1NC(=O)[C@@H]2CCCN2C(=O)CCSSCCNC(=O)[C@H](Cc2ccccc2)NC1=O [X-B1-D3-F + A7] ([Mpa]P[Dap](Ac)F-Cysteamide; disulfide 1-C)
- fraction fluorescent probe displaced: 0.02548

Compound: CC(C)CC(=O)NC[C@@H]1NC(=O)[C@@H]2CCCN2C(=O)CCSSCCNC(=O)[C@H](Cc2ccccc2)NC1=O [X-B1-D3-F + A8] ([Mpa]P[Dap](Isovaleryl)F-Cysteamide; disulfide 1-C)
- fraction fluorescent probe displaced: -0.02974

Compound: COc1ccc(C(=O)NC[C@@H]2NC(=O)[C@@H]3CCCN3C(=O)CCSSCCNC(=O)[C@H](Cc3ccccc3)NC2=O)cn1 [X-B1-D3-F + A10] ([Mpa]P[Dap](Nicotinoyl(6-OMe))F-Cysteamide; disulfide 1-C)
- fraction fluorescent probe displaced: 0.01535

Compound: O=C(NC[C@@H]1NC(=O)[C@@H]2CCCN2C(=O)CCSSCCNC(=O)[C@H](Cc2ccccc2)NC1=O)c1c[nH]c(=O)[nH]c1=O [X-B1-D3-F + A11] ([Mpa]P[Dap](Isoorotoyl)F-Cysteamide; disulfide 1-C)
- fraction fluorescent probe displaced: 0.04782

Compound: O=C(Cc1c[nH]c2ccccc12)NC[C@@H]1NC(=O)[C@@H]2CCCN2C(=O)CCSSCCNC(=O)[C@H](Cc2ccccc2)NC1=O [X-B1-D3-F + A12] ([Mpa]P[Dap](X3)F-Cysteamide; disulfide 1-C)
- fraction fluorescent probe displaced: 0.03497

Compound: O=C(COc1ccccc1)NC[C@@H]1NC(=O)[C@@H]2CCCN2C(=O)CCSSCCNC(=O)[C@H](Cc2ccccc2)NC1=O [X-B1-D3-F + A13] ([Mpa]P[Dap](Phenoxyacetyl)F-Cysteamide; disulfide 1-C)
- fraction fluorescent probe displaced: 0.1199

Compound: O=C(NC[C@@H]1NC(=O)[C@@H]2CCCN2C(=O)CCSSCCNC(=O)[C@H](Cc2ccccc2)NC1=O)c1ccc(Cl)s1 [X-B1-D3-F + A14] ([Mpa]P[Dap](2Thenoyl(5-Cl))F-Cysteamide; disulfide 1-C)
- fraction fluorescent probe displaced: 0.08192

Compound: Cc1nnsc1C(=O)NC[C@@H]1NC(=O)[C@@H]2CCCN2C(=O)CCSSCCNC(=O)[C@H](Cc2ccccc2)NC1=O [X-B1-D3-F + A15] ([Mpa]P[Dap](1,2,3Thiadiazole5CO(4-Me))F-Cysteamide; disulfide 1-C)
- fraction fluorescent probe displaced: -0.03374

Compound: O=C(NC[C@@H]1NC(=O)[C@@H]2CCCN2C(=O)CCSSCCNC(=O)[C@H](Cc2ccccc2)NC1=O)c1cccc(C(F)(F)F)c1 [X-B1-D3-F + A18] ([Mpa]P[Dap](Benzoyl(3-CF3))F-Cysteamide; disulfide 1-C)
- fraction fluorescent probe displaced: 0.09317

Compound: O=C(NC[C@@H]1NC(=O)[C@@H]2CCCN2C(=O)CCSSCCNC(=O)[C@H](Cc2ccccc2)NC1=O)c1ccc(Cl)cc1 [X-B1-D3-F + A25] ([Mpa]P[Dap](Benzoyl(4-Cl))F-Cysteamide; disulfide 1-C)
- fraction fluorescent probe displaced: 0.2195

Compound: COc1ccc(CC(=O)NC[C@@H]2NC(=O)[C@@H]3CCCN3C(=O)CCSSCCNC(=O)[C@H](Cc3ccccc3)NC2=O)cc1OC [X-B1-D3-F + A37] ([Mpa]P[Dap](X9)F-Cysteamide; disulfide 1-C)
- fraction fluorescent probe displaced: 0.02818

Compound: O=C(NC[C@@H]1NC(=O)[C@@H]2CCCN2C(=O)CCSSCCNC(=O)[C@H](Cc2ccccc2)NC1=O)c1cccc2c1OC(F)(F)O2 [X-B1-D3-F + A38] ([Mpa]P[Dap](X4)F-Cysteamide; disulfide 1-C)
- fraction fluorescent probe displaced: 0.06653

Results, then the molecule that gave them:

- fraction fluorescent probe displaced, Screen (Acid 25): 0.22
- fraction fluorescent probe displaced, Replicate (Acid 25): 0.15
Compound: O=C1CCSSCCNC(=O)C2CCCN(C2)C(=O)C2CC(NC(=O)c3ccc(Cl)cc3)CN2C(=O)C(Cc2c[nH]c3ccccc23)N1 (centres unmarked) [X W D5 B4 Acid 25]

- fraction fluorescent probe displaced, Screen (Acid 91): 0.16
- fraction fluorescent probe displaced, Replicate (Acid 91): 0.09
Compound: O=C(C=Cc1ccccc1)NC1CC2C(=O)N3CCCC(C3)C(=O)NCCSSCCC(=O)NC(Cc3c[nH]c4ccccc34)C(=O)N2C1 (centres unmarked) [X W D5 B4 Acid 91]

- fraction fluorescent probe displaced, Screen (Acid 25): 0.0244
- fraction fluorescent probe displaced, Replicate (Acid 25): 0.0465
Compound: O=C1CCNC(=O)C2(CCN(C(=O)c3ccc(Cl)cc3)CC2)NC(=O)[C@H](Cc2c[nH]c3ccccc23)NC(=O)CCSSCCN1 [X W D6 B2 Acid 25]

- fraction fluorescent probe displaced, Screen (Acid 91): 0.32
- fraction fluorescent probe displaced, Replicate (Acid 91): 0.0168
Compound: O=C1CCNC(=O)C2(CCN(C(=O)C=Cc3ccccc3)CC2)NC(=O)C(Cc2c[nH]c3ccccc23)NC(=O)CCSSCCN1 (centres unmarked) [X W D6 B2 Acid 91]

- fraction fluorescent probe displaced, Screen (Acid 14): 0.14
- fraction fluorescent probe displaced, Replicate (Acid 14): 0.22
Compound: O=C1CCSSCCNC(=O)c2cccc(c2)CNC(=O)C2(CCN(C(=O)c3ccc(Cl)s3)CC2)NC(=O)[C@H](Cc2c[nH]c3ccccc23)N1 [X W D6 B5 Acid 14]

- fraction fluorescent probe displaced, Screen (Acid 91): 0.40
- fraction fluorescent probe displaced, Replicate (Acid 91): 0.34
Compound: O=C1CCSSCCNC(=O)c2cccc(c2)CNC(=O)C2(CCN(C(=O)/C=C/c3ccccc3)CC2)NC(=O)[C@H](Cc2c[nH]c3ccccc23)N1 [X W D6 B5 Acid 91]

- fraction fluorescent probe displaced, Screen (Acid 25): 0.19
- fraction fluorescent probe displaced, Replicate (Acid 25): 0.07
Compound: O=C1CCNC(=O)C2CN(C(=O)c3ccc(Cl)cc3)CCN2C(=O)C(Cc2c[nH]c3ccccc23)NC(=O)CCSSCCN1 (centres unmarked) [X W D7 B2 Acid 25]

- fraction fluorescent probe displaced: 0.08125
Compound: Cc1cc(C(=O)NC[C@@H]2NC(=O)[C@@H]3CCCN3C(=O)CCSSCCNC(=O)[C@H](Cc3ccccc3)NC2=O)no1 [X-B1-D3-F + A3] ([Mpa]P[Dap](Isoxazole3carbonyl(5-Me))F-Cysteamide; disulfide 1-C)

- fraction fluorescent probe displaced: -0.0026
Compound: O=C(NC[C@@H]1NC(=O)[C@@H]2CCCN2C(=O)CCSSCCNC(=O)[C@H](Cc2ccccc2)NC1=O)c1c[nH]c(=O)cn1 [X-B1-D3-F + A9] ([Mpa]P[Dap](Pyrazinoyl(5-oxo-4H))F-Cysteamide; disulfide 1-C)

- fraction fluorescent probe displaced: -0.04895
Compound: O=C(NC[C@@H]1NC(=O)[C@@H]2CCCN2C(=O)CCSSCCNC(=O)[C@H](Cc2ccccc2)NC1=O)c1ccco1 [X-B1-D3-F + A16] ([Mpa]P[Dap](2Furoyl)F-Cysteamide; disulfide 1-C)

- fraction fluorescent probe displaced: 0.02873
Compound: O=C(NC[C@@H]1NC(=O)[C@@H]2CCCN2C(=O)CCSSCCNC(=O)[C@H](Cc2ccccc2)NC1=O)c1cc(F)cc(F)c1 [X-B1-D3-F + A23] ([Mpa]P[Dap](Benzoyl(3,5-F2))F-Cysteamide; disulfide 1-C)
